Data taken from EP0908457B1, “3-(1,2-benzisothiazol- and isoxazol-5-Y1)-2,4(1H,3H)-pyrimidinedione or thione and 3-(1,2-benzisothiazol- and isoxazol-5-y1)-4(3H)-pyrimidinone or thione herbicidal agents” (BASF AKTIENGESELLSCHAFT, priority 1997, dated 1999).

Experiments:
[1] = tested on: Echinochloa oryzoides (Ard.) Fritsch.; experiment: Preemergence weed control under flooded paddy conditions, ECHORC (Watergrass (Calif.)); type: in vivo; settings: preemergence, flooded paddy, rated three to four weeks after treatment
Cyperus iria = experiment: Preemergence weed control under flooded paddy conditions, CYPIR (Rice Flatsedge); type: in vivo; settings: preemergence, flooded paddy, rated three to four weeks after treatment
[2] = tested on: Cyperus serotinus, Rottb.; experiment: Preemergence weed control under flooded paddy conditions, CYPSE (Flatsedge); type: in vivo; settings: preemergence, rated three to four weeks after treatment
[3] = tested on: Monochoria vaginalis, Presl.; experiment: Preemergence weed control under flooded paddy conditions, MOOVA (Monochoria); type: in vivo; settings: preemergence, flooded paddy, rated three to four weeks after treatment
Sagittaria pygmaea, L. = experiment: Preemergence weed control under flooded paddy conditions, SAGPY (Arrowhead (Pygmaea)); type: in vivo; settings: preemergence, flooded paddy, rated three to four weeks after treatment
[4] = tested on: Oryza sativa, (L.) Tebonnet; experiment: Rice tolerance to post-transplant applications under flooded paddy conditions (Example 187), ORYSAT (Rice, Tebonnet); settings: rated three to four weeks after treatment

SMILES	ECHORC herbicidal rating ([1]; 0.0320 kg/ha)	ECHORC herbicidal rating ([1]; 0.0620 kg/ha)	ECHORC herbicidal rating ([1]; 0.1250 kg/ha)	ECHORC herbicidal rating ([1]; 0.2500 kg/ha)	CYPIR herbicidal rating (Cyperus iria; 0.0320 kg/ha)	CYPIR herbicidal rating (Cyperus iria; 0.0620 kg/ha)	CYPIR herbicidal rating (Cyperus iria; 0.1250 kg/ha)	CYPIR herbicidal rating (Cyperus iria; 0.2500 kg/ha)	CYPSE herbicidal rating ([2]; 0.0320 kg/ha)	CYPSE herbicidal rating ([2]; 0.0620 kg/ha)	CYPSE herbicidal rating ([2]; 0.1250 kg/ha)	CYPSE herbicidal rating ([2]; 0.2500 kg/ha)	MOOVA herbicidal rating ([3]; 0.0320 kg/ha)	MOOVA herbicidal rating ([3]; 0.0620 kg/ha)	MOOVA herbicidal rating ([3]; 0.1250 kg/ha)	MOOVA herbicidal rating ([3]; 0.2500 kg/ha)	SAGPY herbicidal rating (Sagittaria pygmaea, L.; 0.0320 kg/ha)	SAGPY herbicidal rating (Sagittaria pygmaea, L.; 0.0620 kg/ha)	SAGPY herbicidal rating (Sagittaria pygmaea, L.; 0.1250 kg/ha)	SAGPY herbicidal rating (Sagittaria pygmaea, L.; 0.2500 kg/ha)	further results
CC(C)N(C(C)C)S(=O)(=O)NC(=O)COc1ccccc1-c1nsc2ccc(-n3c(=O)cc(C(F)(F)F)n(C)c3=O)cc12 [Example 512, Acetamide, 2-{o-{5-[3,6-dihydro-3-methyl-2,6-dioxo-4-(trifluoromethyl)-1(2H)-pyrimidinyl]-1,2-benzisothiazol-3-yl}phenoxy}-N-(diisopropyl-sulfamoyl)-]	7.0	7.0	9.0	9.0	0.0	2.0	5.0	5.0	0.0	0.0	0.0	0.0	9.0	9.0	9.0	9.0	0.0	0.0	2.0	4.0	ORYSAT herbicidal rating (rice tolerance) ([4]; 0.0320 kg/ha): 0.0; ORYSAT herbicidal rating (rice tolerance) ([4]; 0.0620 kg/ha): 0.0; ORYSAT herbicidal rating (rice tolerance) ([4]; 0.1250 kg/ha): 1.0; ORYSAT herbicidal rating (rice tolerance) ([4]; 0.2500 kg/ha): 2.0
COC(=O)c1nsc2cc(F)c(-n3c(=O)cc(C(F)(F)F)n(C)c3=O)cc12 [Example 513, 1,2-Benzisothiazole-3-carboxylic acid, 5-[3,6-dihydro-3-methyl-2,6-dioxo-4-(trifluoromethyl)-1(2H)-pyrimidinyl]-6-fluoro-, methyl ester]	0.0	5.0	7.0	8.0	4.0	4.0	6.0	9.0	9.0	9.0	9.0	9.0	9.0	9.0	9.0	9.0	9.0	9.0	9.0	9.0	ORYSAT herbicidal rating (rice tolerance) ([4]; 0.0320 kg/ha): 9.0; ORYSAT herbicidal rating (rice tolerance) ([4]; 0.0620 kg/ha): 7.0; ORYSAT herbicidal rating (rice tolerance) ([4]; 0.1250 kg/ha): 9.0; ORYSAT herbicidal rating (rice tolerance) ([4]; 0.2500 kg/ha): 9.0
Cc1ccc(OC(C)(C)C(=O)OC(C)(C)C)c(-c2nsc3ccc(-n4c(=O)cc(C(F)(F)F)n(C)c4=O)cc23)c1 [Example 514, Propionic acid, 2-{{2-{5-[3,6-dihydro-3-methyl-2,6-dioxo-4-(trifluoromethyl)-1(2H)-pyrimidinyl]-1,2-benzisothiazol-3-yl}-p-tolyl}oxy}-2-methyl-, tert-butyl ester]	0.0	1.0	2.0	8.0	0.0	0.0	2.0	7.0	0.0	0.0	0.0	0.0	9.0	9.0	9.0	9.0	0.0	0.0	0.0	0.0	ORYSAT herbicidal rating (rice tolerance) ([4]; 0.0320 kg/ha): 2.0; ORYSAT herbicidal rating (rice tolerance) ([4]; 0.0620 kg/ha): 2.0; ORYSAT herbicidal rating (rice tolerance) ([4]; 0.1250 kg/ha): 1.0; ORYSAT herbicidal rating (rice tolerance) ([4]; 0.2500 kg/ha): 4.0
